Earlier results on 1 compound are cited in US8486463B1, “Cosmetic composition comprising aloe vera and caprylyl salicylic acid and method of making” (L'Oreal, priority 2012, dated 2013).

The conditions of the data set: based on temperature and purity level.

On to `O` [water], for which the pH is 7 and the surface tension was 55.73 dyne/cm.
